Source: patent US20240254123A1, “PYRIDOPYRIMIDINE DERIVATIVES USEFUL AS WEE1 KINASE INHIBITORS” (APREA THERAPEUTICS, INC., priority 2021, published 2024)
“And” between values parts separate entries of the source, which are not always exact repeats. Equal entries are not always repeated.

How the values were obtained:
WEE1 [1] = molecular target: T1, WEE1 (Homo sapiens, UniProt P30291); experiment: Guava flow cytometry cell cycle assay (DNA content per cell, propidium iodide); format: cell-based; conditions: for WEE1 Guava MEC Guava MEC: single agent, unit assumed; for WEE1 Guava MEC with 20 nM GEM: in µM (unit assumed)
T1 construct: Drug treated cells are fixed and stained with propidium iodide (PI); endogenous in cells
T1 sequence (P30291 whole entry): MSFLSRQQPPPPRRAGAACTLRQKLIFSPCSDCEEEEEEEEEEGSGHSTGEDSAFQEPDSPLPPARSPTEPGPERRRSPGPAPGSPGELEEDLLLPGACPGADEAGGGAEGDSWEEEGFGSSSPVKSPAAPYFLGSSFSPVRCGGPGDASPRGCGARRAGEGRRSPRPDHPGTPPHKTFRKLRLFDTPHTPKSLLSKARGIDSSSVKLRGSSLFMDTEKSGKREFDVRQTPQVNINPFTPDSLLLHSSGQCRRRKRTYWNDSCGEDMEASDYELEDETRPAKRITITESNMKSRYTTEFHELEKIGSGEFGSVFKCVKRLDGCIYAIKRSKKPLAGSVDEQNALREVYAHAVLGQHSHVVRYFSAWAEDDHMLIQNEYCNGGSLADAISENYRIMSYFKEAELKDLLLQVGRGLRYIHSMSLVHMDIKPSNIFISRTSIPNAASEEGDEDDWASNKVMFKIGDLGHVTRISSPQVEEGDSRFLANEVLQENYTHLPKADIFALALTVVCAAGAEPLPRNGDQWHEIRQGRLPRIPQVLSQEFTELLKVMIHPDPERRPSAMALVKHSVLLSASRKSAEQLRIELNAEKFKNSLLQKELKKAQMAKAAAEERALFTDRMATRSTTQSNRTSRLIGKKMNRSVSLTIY
Excerpt: In this example, compounds described herein were subject to an assay that detects changes the phases of the cell cycle upon drug treatment, permitting the identification of drugs that affect cell proliferation in a specific manner. For example, problematic DNA replication causes the percentage of cells in S phase to increase. Thus, quantification of cells in S phase permits identification of drugs that cause defects in DNA replication. Similarly, drugs that selectively defects in progression through G2/M can also be identified. Moreover, synergy between assayed drugs and known cell cycle regulators can be determined, as exemplified by the effect of ATR inhibition when combined with agents that slow DNA replication, which causes replication fork collapse into DSBs and complete loss of DNA synthesis. Two novel drugs can also be combined to quantify synergistic effects on specific cell cycle phases.
The assay operates by the quantification of DNA content per cell by flow cytometry. Cells are assessed for effects on cell cycle using a Guava EasyCyte™ flow cytometer (Austin, TX). Drug treated cells are fixed and stained with propidium iodide (PI) and resuspended in phosphate-buffered saline containing the PI staining buffer. During flow cytometry, PI is excited at 528 nm and is detected in a 610/20 bandpass. Readout of the […] is optical density of DNA-staining dye. The assay generates a histogram showing count of cells by amount of DNA, which is an indicator of place in the cell cycle. This rapid assay detects relative changes in the cell cycle upon drug treatment upon comparison vehicle-treated and single-agent controls for detection of combinatorial interactions. See, Table 4.

WEE1 [2] = molecular target: T1, WEE1; experiment: in vitro enzymatic inhibitory activity, WEE1 kinase, 10-dose IC50 mode; format: biochemical; conditions: 10 μM ATP
Method: Compounds were tested against two kinases.
Data includes raw data, % Enzyme activity (relative to DMSO controls) and curve fits.

WEE1 Guava MEC Guava MEC (WEE1 [1]) | WEE1 Guava MEC with 20 nM GEM (WEE1 [1]) | IC50 (WEE1 [2]) | Compound
> 5 µM | 1.25 | – | Cc1ccc(Cl)c(-n2cc(Br)c3nc(Nc4cnn(C5CCNCC5)c4)ncc3c2=O)c1Cl [Compound P14, 8-bromo-6-(2,6-dichloro-3-methyl-phenyl)-2-[[1-(4-piperidyl)pyrazol-4-yl]amino]pyrido[4,3-d]pyrimidin-5-one]
2.5 µM | 0.625 | – | O=c1c2cnc(Nc3cnn(C4CCNCC4)c3)nc2c(C2CC2)cn1-c1c(Cl)cccc1Cl [Compound P3, 8-cyclopropyl-6-(2,6-dichlorophenyl)-2-[[1-(4-piperidyl)pyrazol-4-yl]amino]pyrido[4,3-d]pyrimidin-5-one]
2.5 µM | 1.25 | – | C=C(C)c1cn(-c2c(Cl)cccc2Cl)c(=O)c2cnc(Nc3cnn(C4CCN(C)CC4)c3)nc12 [Compound P7, 6-(2,6-dichlorophenyl)-8-isopropenyl-2-[[1-(1-methyl-4-piperidyl)pyrazol-4-yl]amino]pyrido[4,3-d]pyrimidin-5-one]
5 µM | 1.25 | – | Cc1cn(-c2c(Cl)cccc2Cl)c(=O)c2cnc(Nc3cnn(C4CCN(C)CC4)c3)nc12 [Compound P2, 6-(2,6-dichlorophenyl)-8-methyl-2-[[1-(1-methyl-4-piperidyl)pyrazol-4-yl]amino]pyrido[4,3-d]pyrimidin-5-one]
0.625 µM | 0.313 | – | O=c1c2cnc(Nc3cnn(C4CCCNC4)c3)nc2c(Br)cn1-c1c(Cl)cccc1Cl (centres unmarked) [Compound P13, 8-bromo-6-(2,6-dichlorophenyl)-2-[[1-(3-piperidyl)pyrazol-4-yl]amino]pyrido[4,3-d]pyrimidin-5-one]
2.5 µM | 0.625 | – | Cc1cc(Cl)c(-n2cc(Br)c3nc(Nc4cnn(C5CCNCC5)c4)ncc3c2=O)c(Cl)c1 [Compound P16, 8-bromo-6-(2,6-dichloro-4-methyl-phenyl)-2-[[1-(4-piperidyl)pyrazol-4-yl]amino]pyrido[4,3-d]pyrimidin-5-one]
5 µM | 1.25 | – | C=C(C)c1cn(-c2c(Cl)cccc2Cl)c(=O)c2cnc(Nc3cnn(C4CCNCC4)c3)nc12 [Compound P6, 6-(2,6-dichlorophenyl)-2-((1-(piperidin-4-yl)-1H-pyrazol-4-yl)amino)-8-(prop-1-en-2-yl)pyrido[4,3-d]pyrimidin-5(6H)-one]
5 µM | 1.25 | – | CC(C)c1cn(-c2c(Cl)cccc2Cl)c(=O)c2cnc(Nc3cnn(C4CCNCC4)c3)nc12 [Compound P8, 6-(2,6-dichlorophenyl)-8-isopropyl-2-[[1-(4-piperidyl)pyrazol-4-yl]amino]pyrido[4,3-d]pyrimidin-5-one]
5 µM | 0.625 | – | Cc1cccc(F)c1-n1cc(Br)c2nc(Nc3cnn(C4CCNCC4)c3)ncc2c1=O [Compound P25, 8-bromo-6-(2-fluoro-6-methyl-phenyl)-2-[[1-(4-piperidyl)pyrazol-4-yl]amino]pyrido[4,3-d]pyrimidin-5-one]
1.25 µM | 0.625 | 47 nM | CCc1cn(-c2c(Cl)cccc2Cl)c(=O)c2cnc(Nc3cnn(C4CCNCC4)c3)nc12 [Compound P4, 6-(2,6-dichlorophenyl)-8-ethyl-2-[[1-(4-piperidyl)pyrazol-4-yl]amino]pyrido[4,3-d]pyrimidin-5-one]

Second part, the compound before the results:

Compound | WEE1 Guava MEC Guava MEC (WEE1 [1]) | WEE1 Guava MEC with 20 nM GEM (WEE1 [1]) | IC50 (WEE1 [2])
CN(C)C1CCc2ccc(Nc3ncc4c(=O)n(-c5c(Cl)cccc5Cl)cc(Br)c4n3)cc21 (centres unmarked) [Compound P22, 8-bromo-6-(2,6-dichlorophenyl)-2-[[3-(dimethylamino)indan-5-yl]amino]pyrido[4,3-d]pyrimidin-5-one] | 2.5 µM | 1.25 | –
O=c1c2cnc(Nc3ccc4c(c3)C(O)CC4)nc2c(Br)cn1-c1c(Cl)cccc1Cl (centres unmarked) [Compound P24, 8-bromo-6-(2,6-dichlorophenyl)-2-[(3-hydroxyindan-5-yl)amino]pyrido[4,3-d]pyrimidin-5-one] | 5 µM | 1.25 | –
CN1CCN(c2ccc(Nc3ncc4c(=O)n(-c5c(Cl)cccc5Cl)cc(Br)c4n3)cc2)CC1 [Compound P21, 8-bromo-6-(2,6-dichlorophenyl)-2-[4-(4-methylpiperazin-1-yl)anilino]pyrido[4,3-d]pyrimidin-5-one] | 0.625 µM | 0.313 and 0.625 | –
CCc1cn(-c2c(Cl)cccc2Cl)c(=O)c2cnc(Nc3cnn(C4CCN(C)CC4)c3)nc12 [Compound P5, 6-(2,6-dichlorophenyl)-8-ethyl-2-((1-(1-methylpiperidin-4-yl)-1H-pyrazol-4-yl)amino)pyrido[4,3-d]pyrimidin-5(6H)-one] | > 5 µM | 1.25 | –
Cc1ccc(Cl)c(-n2cc(Br)c3nc(Nc4cnn(C5CCN(C)CC5)c4)ncc3c2=O)c1Cl [Compound P15, 8-bromo-6-(2,6-dichloro-3-methyl-phenyl)-2-[[1-(1-methyl-4-piperidyl)pyrazol-4-yl]amino]pyrido[4,3-d]pyrimidin-5-one] | 5 µM | 1.25 | –
O=c1c2cnc(Nc3ccc4c(c3)CNCC4)nc2c(Br)cn1-c1c(Cl)cccc1Cl [Compound P10, 8-bromo-6-(2,6-dichlorophenyl)-2-(1,2,3,4-tetrahydroisoquinolin-7-ylamino)pyrido[4,3-d]pyrimidin-5-one] | 0.313 µM | 0.156 | 27 nM
Cc1cccc(C)c1-n1cc(Br)c2nc(Nc3cnn(C4CCN(C)CC4)c3)ncc2c1=O [Compound P27, 8-bromo-6-(2,6-dimethylphenyl)-2-[[1-(1-methyl-4-piperidyl)pyrazol-4-yl]amino]pyrido[4,3-d]pyrimidin-5-one] | 1.25 µM | 0.625 | –
NC1CCc2ccc(Nc3ncc4c(=O)n(-c5c(Cl)cccc5Cl)cc(Br)c4n3)cc21 (centres unmarked) [Compound P23, 2-[(3-aminoindan-5-yl)amino]-8-bromo-6-(2,6-dichlorophenyl)pyrido[4,3-d]pyrimidin-5-one] | 5 µM | 2.5 | –
CC(C)c1cn(-c2c(Cl)cccc2Cl)c(=O)c2cnc(Nc3cnn(C4CCN(C)CC4)c3)nc12 [Compound P9, 6-(2,6-dichlorophenyl)-8-isopropyl-2-[[1-(1-methyl-4-piperidyl)pyrazol-4-yl]amino]pyrido[4,3-d]pyrimidin-5-one] | 5 µM | 1.25 | –
O=c1c2cnc(Nc3ccc4c(c3)CNCC43CC3)nc2c(Br)cn1-c1c(Cl)cccc1Cl [Compound P19, 8-bromo-6-(2,6-dichlorophenyl)-2-(spiro[2,3-dihydro-1H-isoquinoline-4,1′-cyclopropane]-7-ylamino)pyrido[4,3-d]pyrimidin-5-one] | 0.313 µM | 0.156 | –
CN1CCCC(n2cc(Nc3ncc4c(=O)n(-c5c(Cl)cccc5Cl)cc(Br)c4n3)cn2)C1 (centres unmarked) [Compound P12, 8-bromo-6-(2,6-dichlorophenyl)-2-[[1-(1-methyl-3-piperidyl)pyrazol-4-yl]amino]pyrido[4,3-d]pyrimidin-5-one] | > 1.25 µM | 0.625 | –
CN1Cc2cc(Nc3ncc4c(=O)n(-c5c(Cl)cccc5Cl)cc(Br)c4n3)ccc2C2(CC2)C1 [Compound P20, 8-bromo-6-(2,6-dichlorophenyl)-2-[(2-methylspiro[1,3-dihydroisoquinoline-4,1′-cyclopropane]-7-yl)amino]pyrido[4,3-d]pyrimidin-5-one] | 0.313 µM | 0.156 | –
Cc1cccc(F)c1-n1cc(Br)c2nc(Nc3cnn(C4CCN(C)CC4)c3)ncc2c1=O [Compound P26, 8-bromo-6-(2-fluoro-6-methyl-phenyl)-2-[[1-(1-methyl-4-piperidyl)pyrazol-4-yl]amino]pyrido[4,3-d]pyrimidin-5-one] | 5 µM | 0.625 | –
CN1CCc2ccc(Nc3ncc4c(=O)n(-c5c(Cl)cccc5Cl)cc(Br)c4n3)cc2C1 [Compound P11, 8-bromo-6-(2,6-dichlorophenyl)-2-[(2-methyl-3,4-dihydro-1H-isoquinolin-7-yl)amino]pyrido[4,3-d]pyrimidin-5-one] | 0.313 µM | 0.156 | 31 nM
Cc1cc(Cl)c(-n2cc(Br)c3nc(Nc4cnn(C5CCN(C)CC5)c4)ncc3c2=O)c(Cl)c1 [Compound P17, 8-bromo-6-(2,6-dichloro-4-methyl-phenyl)-2-[[1-(1-methyl-4-piperidyl)pyrazol-4-yl]amino]pyrido[4,3-d]pyrimidin-5-one] | 2.5 µM | 0.625 | –
